Measured values taken from the NIST ThermoML archive (doi:10.1016/j.jct.2013.12.028).

Assay: mn = molality of the nth substance listed, in mol/kg
Details: 101.3 kPa, Liquid, Vibrating tube method

C1CCOC1 [tetrahydrofuran] + O
mass density [kg/m3]
Details | 278.15 K | 283.15 K | 288.15 K | 293.15 K | 298.15 K | 303.15 K | 308.15 K | 313.15 K | 318.15 K
m1 = 0.06882 | 999.729 | 999.439 | 998.826 | 997.918 | 996.743 | 995.331 | 993.701 | 991.864 | 989.851
m1 = 0.1028 | 999.619 | 999.317 | 998.697 | 997.78 | 996.596 | 995.178 | 993.538 | 991.694 | 989.672
m1 = 0.2158 | 999.282 | 998.938 | 998.289 | 997.343 | 996.13 | 994.687 | 993.021 | 991.146 | 989.097
m1 = 0.3098 | 999.036 | 998.655 | 997.977 | 997.003 | 995.764 | 994.293 | 992.601 | 990.703 | 988.631
m1 = 0.4199 | 998.781 | 998.36 | 997.637 | 996.629 | 995.359 | 993.859 | 992.137 | 990.208 | 988.102
m1 = 0.5704 | 998.489 | 997.999 | 997.225 | 996.162 | 994.84 | 993.293 | 991.526 | 989.552 | 987.402
m1 = 0.7194 | 998.255 | 997.698 | 996.863 | 995.741 | 994.361 | 992.771 | 990.96 | 988.935 | 986.735
m1 = 0.8767 | 998.059 | 997.427 | 996.519 | 995.333 | 993.894 | 992.247 | 990.382 | 988.304 | 986.049
m1 = 1.04 | 997.903 | 997.18 | 996.19 | 994.935 | 993.435 | 991.725 | 989.802 | 987.671 | 985.363
m1 = 1.174 | 997.793 | 997.013 | 995.964 | 994.643 | 993.087 | 991.324 | 989.348 | 987.162 | 984.803
m1 = 1.262 | 997.732 | 996.903 | 995.814 | 994.456 | 992.856 | 991.065 | 989.06 | 986.838 | 984.443
m1 = 1.406 | 997.65 | 996.744 | 995.581 | 994.16 | 992.503 | 990.648 | 988.583 | 986.311 | 983.864
m1 = 1.576 | 997.559 | 996.552 | 995.314 | 993.821 | 992.084 | 990.16 | 988.025 | 985.688 | 983.169
